Measured values as given in paper PMC11855827, “High-Throughput Screening of Five Compound Libraries for Anthelmintic Activity and Toxicity Leads to the Discovery of Two Flavonoid Compounds” (International Journal of Molecular Sciences, 2025).
Several values for one entry are separate records, joined by “and”; a condition that tells them apart may be missing. Identical values can stand only once. Like-named read-outs stand apart in the source and are kept apart here.

Test system: C. elegans
[1] = Table S2, C. elegans SS assay, 110 μM, averages of 4 data points
[2] = Table S2, C. elegans SS assay, 110 μM, 24 h, averages of 4 data points

Row | Structure (SMILES) | Percentage of motility inhibition 0 h [1] | Percentage of motility inhibition 24 h [2] | Percentage of motility inhibition 24 h (110 µM)
1 | CN1Cc2c(ccc3c2OCO3)[C@@]2(C)[C@@H](O)Cc3cc4c(cc3[C@@H]12)OCO4 [Corynoline] | 13% | 0% | 
2 | COc1cc2c(cc1O)CCN1Cc3c(ccc(OC)c3OC)CC21 (stereo not drawn) [Corypalmine] | 17% | 16% | 
3 | CC(/C=C/C=C(\C)C(=O)[O-])=C\C=C\C=C(C)\C=C\C=C(/C)C(=O)[O-].[Na+].[Na+] [Crocetin (disodium)] | 0% | 5% | 
4 | CC(/C=C/C=C(\C)C(=O)O)=C\C=C\C=C(C)\C=C\C=C(/C)C(=O)O.CNC[C@H](O)[C@@H](O)[C@H](O)[C@H](O)CO.CNC[C@H](O)[C@@H](O)[C@H](O)[C@H](O)CO [Crocetin (meglumine)] | 6% | 10% | 
5 | CC(/C=C/C=C(\C)C(=O)O[C@@H]1O[C@H](CO)[C@@H](O)[C@H](O)[C@H]1O)=C\C=C\C=C(C)\C=C\C=C(/C)C(=O)O[C@@H]1O[C@H](CO[C@@H]2O[C@H](CO)[C@@H](O)[C@H](O)[C@H]2O)[C@@H](O)[C@H](O)[C@H]1O [Crocin II] | 27% | 1% | 
6 | Nc1nc(=O)[nH]c2c1ncn2[C@@H]1O[C@H](CO)[C@@H](O)[C@H]1O [Crotonoside] | 0% | 0% | 
7 | CC(=O)OC(C)(C)CCC(=O)[C@](C)(O)[C@H]1[C@H](O)C[C@@]2(C)[C@@H]3CC=C4[C@@H](C[C@H](O)[C@@H](O)C4(C)C)[C@]3(C)C(=O)C[C@]12C [Cucurbitacin IIa] | 0% | 6% | 
8 | CC(C)(O)CCC(=O)[C@](C)(O)C1[C@H](O)C[C@@]2(C)[C@@H]3CC=C4[C@@H](C[C@H](O)[C@@H](O)C4(C)C)[C@]3(C)C(=O)C[C@]12C (stereo partly drawn) [Cucurbitacin IIb] | 7% | 43% | 
9 | CC(=O)CC[C@@H]1[C@H]2CC(=C(C)C)C(=O)C[C@@]12C [Curcumenone] | 3% | 0% | 
10 | C=C1C[C@@]2(O)O[C@@]3(C[C@H]2C(C)C)[C@@H](C)CC[C@@H]13 [Curcumol] | 8% | 12% | 
11 | C/C1=C/CC[C@H](C)C(=O)C[C@@H](C(C)C)C(=O)C1 [Curdione] | 7% | 22% | 
12 | COc1cc2c(cc1O)C1Cc3ccc(OC)c(O)c3C[N+]1(C)CC2.[Cl-] (stereo not drawn) [Cyclanoline (chloride)] | 7% | 12% | 
13 | CCC(C)C1NC(=O)C(C)NC1=O (stereo not drawn) [Cyclo(Ile‐Ala)] | 16% | 22% | 
14 | CC(C)(O)[C@@H]1CC[C@](C)([C@H]2[C@@H](O)C[C@@]3(C)[C@@H]4C[C@H](O)[C@H]5C(C)(C)[C@@H](O)CC[C@@]56C[C@@]46CC[C@]23C)O1 [Cycloastragenol] | 8% | 31% | 
15 | CC(C)(O)[C@H]1CC[C@@](C)([C@H]2[C@@H](O)C[C@@]3(C)[C@@H]4C[C@H](O)[C@H]5C(C)(C)[C@@H](O)CC[C@@]56C[C@@]46CC[C@]23C)O1 [Cyclogalegenin] | 22% | 9% | 
16 | CN[C@@H](C)[C@H]1[C@H](O)C[C@@]2(C)[C@@H]3CC[C@H]4C(C)(C)[C@@H](NC)CC[C@@]45C[C@@]35CC[C@]12C [Cyclovirobuxine D] | 20% | 0% | 
17 | O=c1cc(-c2ccc(O)c(O)c2)oc2cc(O[C@@H]3O[C@H](CO)[C@@H](O)[C@H](O)[C@H]3O)cc(O)c12 [Cynaroside] | 20% | 0% | 
18 | Cl.NCCS [Cysteamine (hydrochloride)] | 23% | 6% | 
19 | O=c1cccc2n1C[C@@H]1CNC[C@H]2C1 [Cytisinicline] |  |  | 0% and 3%
20 | O=C(CO)[C@@H](O)[C@H](O)[C@H](O)CO [D-Fructose] |  | 15% | 
21 | CC(C)(CO)[C@@H](O)C(=O)NCCC(=O)[O-].CC(C)(CO)[C@@H](O)C(=O)NCCC(=O)[O-].[Ca+2] [D-Pantothenic acid (hemicalcium salt)] | 48% | 1% | 
22 | CC(C)(CO)[C@@H](O)C(=O)NCCC(=O)[O-].[Na+] [D-Pantothenic acid (sodium)] | 1% | 4% | 

Row | Structure (SMILES) | Percentage of motility inhibition 0 h [1] | Percentage of motility inhibition 24 h [2] | Percentage of motility inhibition 24 h (110 µM)
23 | CC(=O)Oc1c(C)c(C)c2c(c1C)CCC(C)(CCC[C@H](C)CCC[C@H](C)CCCC(C)C)O2 (stereo partly drawn) [D-α-Tocopherol acetate] | 7% | 22% | 
24 | CCN(CC)C(=O)c1cccc(C)c1 [DEET] | 59% | 25% | 
25 | COc1ccc(CC2c3cc(OC)c(OC)cc3CCN2C)cc1OC (stereo not drawn) [DL‐Laudanosine] | 7% | 12% | 
26 | COC(=O)N[C@H](C(=O)N1CCC[C@H]1c1ncc(-c2ccc(-c3ccc(-c4cnc([C@@H]5CCCN5C(=O)[C@@H](NC(=O)OC)C(C)C)[nH]4)cc3)cc2)[nH]1)C(C)C.Cl.Cl [Daclatasvir (dihydrochloride)] | 39% | 2% | 
27 | O=c1c(-c2ccc(O)cc2)coc2cc(O[C@@H]3O[C@H](CO)[C@@H](O)[C@H](O)[C@H]3O)ccc12 [Daidzin] | 47% and 26% |  | 
28 | CC(C)=CC/C=C(\C)[C@H]1CC[C@]2(C)[C@@H]1[C@H](O)C[C@@H]1[C@@]3(C)C[C@@H](O)[C@H](O[C@@H]4O[C@H](CO)[C@@H](O)[C@H](O)[C@H]4O[C@@H]4O[C@H](CO)[C@@H](O)[C@H](O)[C@H]4O)C(C)(C)[C@@H]3CC[C@]12C [Damulin A] | 5% | 0% | 
29 | CN1C[C@@H]2C[C@H]1CN2c1cc2c(cc1F)c(=O)c(C(=O)O)cn2C1CC1.CS(=O)(=O)O [Danofloxacin (mesylate)] | 0% | 15% | 
30 | CC(C)CN(C[C@@H](O)[C@H](Cc1ccccc1)NC(=O)O[C@H]1CO[C@H]2OCC[C@H]21)S(=O)(=O)c1ccc(N)cc1.CCO [Darunavir (Ethanolate)] | 14% | 10% | 
31 | COc1cc2c(cc1O)[C@@H](Cc1ccc(O)c(Oc3ccc(C[C@@H]4c5cc(OC)c(OC)cc5CCN4C)cc3)c1)N(C)CC2 [Daurisoline] | 23% | 12% | 
32 | O=C(O)C1=CO[C@@H](O[C@@H]2O[C@H](CO)[C@@H](O)[C@H](O)[C@H]2O)[C@@H]2C(CO)=C[C@H](O)[C@H]12 [Deacetylasperulosidic Acid] | 0% | 8% | 
33 | C[C@@H]1O[C@@H](O[C@H]2[C@H](OC(=O)[C@]34CCC(C)(C)C[C@H]3C3=CC[C@@H]5[C@@]6(C)C[C@H](O)[C@H](O[C@@H]7O[C@H](CO)[C@@H](O)[C@H](O)[C@H]7O)C(CO)(CO)[C@@H]6CC[C@@]5(C)[C@]3(C)C[C@H]4O)OC[C@H](O)[C@@H]2O)[C@H](O)[C@H](O)[C@H]1O[C@@H]1OC[C@@H](O)[C@H](O)[C@H]1O [Deapioplatycodin D] | 12% | 0% | 
34 | C=C1CC[C@@H]2[C@](C)(COC(=O)CCC(=O)O)[C@H](OC(=O)CCC(=O)O)CC[C@@]2(C)[C@@H]1/C=C/C1=CCOC1=O [Dehydroandrographolide succinate] | 7% and 0% |  | 
35 | C=C1CC[C@@H]2[C@](C)(CO)[C@H](O)CC[C@@]2(C)[C@@H]1/C=C/C1=CCOC1=O [Dehydroandrographolide] | 0% and 4% | 7% and 9% | 
36 | COc1cc2c(cc1OC)-c1c(C)c3ccc(OC)c(OC)c3c[n+]1CC2.[Cl-] [Dehydrocorydaline (chloride)] | 0% | 0% | 
37 | COc1cc2c(cc1OC)-c1c(C)c3ccc(OC)c(OC)c3c[n+]1CC2.[OH-] [Dehydrocorydaline (hydroxyl)] | 2% | 0% | 
38 | COc1cc2c(cc1OC)-c1c(C)c3ccc(OC)c(OC)c3c[n+]1CC2.O=[N+]([O-])[O-] [Dehydrocorydaline (nitrate)] | 5% | 0% | 
39 | C=C(CC[C@@H](C(=O)O)[C@H]1CC[C@@]2(C)C3=CC[C@H]4C(C)(C)[C@@H](OC(C)=O)CC[C@]4(C)C3=CC[C@]12C)C(C)C [Dehydroeburicoic acid monoacetate] | 20% | 24% | 
40 | CN1C2=C3N=c4ccccc4=C3CCN2C(=O)c2ccccc21.Cl [Dehydroevodiamine (hydrochloride)] | 8% | 1% | 
41 | C=C(CCC(C(=O)O)[C@H]1[C@H](O)C[C@@]2(C)C3=CC[C@H]4C(C)(C)[C@@H](OC(C)=O)CC[C@]4(C)C3=CC[C@]12C)C(C)C (stereo partly drawn) [Dehydropachymic acid] | 29% | 35% | 
42 | CC(C)Nc1cccnc1N1CCN(C(=O)c2cc3cc(NS(C)(=O)=O)ccc3[nH]2)CC1.CS(=O)(=O)O [Delavirdine (mesylate)] | 22% | 16% | 
43 | CN1CCN(c2ccc(N3C[C@H](CO)OC3=O)cc2F)C=N1 [Delpazolid] | 2% | 3% | 
44 | CN(C)[C@@H]1C(O)=C(C(N)=O)C(=O)[C@@]2(O)C(O)=C3C(=O)c4c(O)ccc(Cl)c4[C@@H](O)[C@H]3C[C@@H]12.Cl [Demeclocycline (hydrochloride)] | 17% | 12% | 
